From patent US20150252051A1, “RETINOIC ACID RECEPTOR-RELATED ORPHAN RECEPTOR MODULATORS AND USES THEREOF” (INNOV17 LLC, priority 2014, published 2015)

What was measured:
Assay type in all cases: cell-based
Settings in all cases: 72 h; human CD4+ T cells under TH17-polarizing conditions, 3 days; supernatant ELISA
IL-17F = experiment: Human TH17 cytokine inhibition as measured by ELISA (IL-17F)
Experimental: (§1) Human TH17 Cytokine Inhibition as Measured by ELISA Peripheral blood mononuclear cells (PBMCs) were sourced from freshly prepared leukocyte enriched plasma (buffy coat) from healthy donors (New York Blood Center). PBMCs were isolated by density gradient centrifugation using Ficoll-Paque™ PLUS (GE Healthcare). Human CD4+ T cells were seeded into 96-well plates (5×10^4 cells/well) and activated with plate-bound anti-human (h)-CD3 antibody and soluble h-aCD28 (both at 1 ug/ml; eBioscience) and differentiated into TH17 cells with 20 ng/mL h-IL-6, 5 ng/mL h-TGF-β1, 10 ng/mL h-IL-23 (eBioscience) and 10 ng/mL IL-1β (Miltenyi Biotec) in serum-free TexMACS Medium (Miltenyi Biotec) supplemented with 1% Penicillin/Streptomycin (Lonza) for 3 days. CD4+ T cells propagated under TH17-polarizing conditions were cultured in the presence or absence of various concentrations of compounds with a final concentration of 0.1% DMSO. Supernatants were collected and stored at −20° C. until assayed for IL-17A, IL-17F and IL-21 levels by “Ready-Set-Go” ELISA kits (eBioscience) as per manufacturer's instructions. Endpoint absorbance was read at 450 nm using a microplate reader (Perkin Elmer).

IL-21 = experiment: Human TH17 cytokine inhibition as measured by ELISA (IL-21)
Experimental: as §1

IL-17A = experiment: Human TH17 cytokine inhibition as measured by ELISA (IL-17A)
Experimental: as §1

Measured: IC50

O=C(c1ccccc1)N1C2CCC1C(CN1CCc3cc(-c4cn[nH]c4)ccc31)C2 (stereo not drawn) [Example 9, (2-((5-(1H-pyrazol-4-yl)-1H-indolin-1-yl)methyl)-7-azabicyclo[2.2.1]heptan-7-yl)(phenyl)methanone]
< 10 µM: all assays above

O=C(Cc1ccccc1)N1C2CCC1C(Cn1ccc3cc(-c4cn[nH]c4)ccc31)C2 (stereo not drawn) [Example 10, 1-(2-((5-(1H-pyrazol-4-yl)-1H-indol-1-yl)methyl)-7-azabicyclo[2.2.1]heptan-7-yl)-2-phenylethanone]
< 10 µM: all assays above

O=C(CCc1ccccc1)N1C2CCC1C(Cn1ccc3cc(-c4cn[nH]c4)ccc31)C2 (stereo not drawn) [Example 11, 1-(2-((5-(1H-pyrazol-4-yl)-1H-indol-1-yl)methyl)-7-azabicyclo[2.2.1]heptan-7-yl)-3-phenylpropan-1-one]
< 10 µM: all assays above

O=C(C1CCCCC1)N1C2CCC1C(Cn1ccc3cc(-c4cn[nH]c4)ccc31)C2 (stereo not drawn) [Example 12, (2-((5-(1H-pyrazol-4-yl)-1H-indol-1-yl)methyl)-7-azabicyclo[2.2.1]heptan-7-yl)(cyclohexyl)methanone]
< 10 µM: all assays above

O=C(CC1CCCCC1)N1C2CCC1C(Cn1ccc3cc(-c4cn[nH]c4)ccc31)C2 (stereo not drawn) [Example 13]
< 10 µM: all assays above

CC(C)CC(=O)N1C2CCC1C(Cn1ccc3cc(-c4cn[nH]c4)ccc31)C2 (stereo not drawn) [Example 14, 1-(2-((5-(1H-pyrazol-4-yl)-1H-indol-1-yl)methyl)-7-azabicyclo[2.2.1]heptan-7-yl)-3-methylbutan-1-one]
< 10 µM: all assays above

CC(C)C(=O)N1C2CCC1C(Cn1ccc3cc(-c4cn[nH]c4)ccc31)C2 (stereo not drawn) [Example 15, 1-(2-((5-(1H-pyrazol-4-yl)-1H-indol-1-yl)methyl)-7-azabicyclo[2.2.1]heptan-7-yl)-2-methylpropan-1-one]
< 10 µM: all assays above
